Experimental data reported in patent US12538923B2, “Herbicidal compositions comprising imazethapyr” (BASF SE, priority 2024, dated 2026).

Tests used:
Format in all cases: in vivo
[1] = system: Amaranthus hybridus (AMACH); experiment: Post-emergence field trial, herbicidal activity on AMACH
Procedure: (§1) In the examples below, using the method of S. R. Colby (1967) “Calculating synergistic and antagonistic responses of herbicide combinations”, Weeds 15, p. 22ff., the value E, which is expected if the activity of the individual active compounds is only additive, was calculated:
(§2) [formula] • where • X=percent activity using active herbicide A at an application rate a; • Y=percent activity using active herbicide B (e.g. imazethapyr) at an application rate b; • E=expected activity (in %) by A+B at application rates a+b.
(§3) If the value found experimentally is higher than the value E calculated according to Colby, a synergistic effect is present.
(§4) On field test sites, natural weed infestation or seeded weeds were treated post-emergence of the weeds.
(§5) In the field trials, the weeds were treated as indicated below.
(§6) In the following experiments, the herbicidal activity for the individual herbicidal compositions (solo and mixture applications) was assessed at the indicated days after treatment (DAT). The assessments for the damage on undesired weeds caused by the composition was carried out using a scale from 0 to 100%, compared to the untreated control plants. Here, 0 means no damage and 100 means complete destruction of the plants.
Herbicide A-1 (342 g/I) and imazethapyr-ammonium were, together with addition of 0.25 l/ha Dash® MSO Max as adjuvant, formulated in water as distribution medium (water volume 200 l/ha) and sprayed with commercial flat fan nozzles.

[2] = system: Amaranthus cruentus (AMACR); experiment: Post-emergence field trial, herbicidal activity on AMACR; conditions: height 20-25 cm, 25 DAT, 0.25 l/ha Dash MSO Max
Procedure: as §1, §2, §3, §4, §5
as §6, with “the plants. […]” for “the plants.”

[3] = system: Amaranthus viridis (AMAVI); experiment: Post-emergence field trial, herbicidal activity on AMAVI; conditions: growth stage 16-18, height 10-15 cm, 20 DAT, 0.5% MSO
Procedure: as §1, §2, §3, §4, §5, §6
(§7) Herbicide A-1 (342 g/l) and imazethapyr-ammonium were, together with addition of 0.5% MSO (methylated seed oil) as adjuvant, formulated in water as distribution medium (water volume […]) and sprayed with commercial flat fan nozzles.

[4] = system: Spermacoce latifolia (BOILF); experiment: Post-emergence field trial, herbicidal activity on BOILF; conditions: 21 DAT
Procedure: as §1, §2, §3, §4, §5, §6, §7

[5] = system: Brachiaria plantaginea (BRAPL); experiment: Post-emergence field trial, herbicidal activity on BRAPL; conditions: for % herbicidal activity: Table 2.5, 21 DAT, growth stage 24
Procedure: as §1, §2, §3, §4, §5, §6, §7

[6] = system: Digitaria horizontalis (DIGHO); experiment: Post-emergence field trial, herbicidal activity on DIGHO; conditions: Table 2.5, 21 DAT, growth stage 24
Procedure: as §1, §2, §3, §4, §5
as §6, with “the plants. […]” for “the plants.”

[7] = system: Digitaria insularis (DIGIN); experiment: Post-emergence field trial, herbicidal activity on DIGIN; conditions: Table 2.4, 21 DAT, weed height 20-40 cm
Procedure: as §1, §2, §3, §4, §5
as §6, with “the plants. […]” for “the plants.”

Eleusine indica (ELEIN) = experiment: Post-emergence field trial, herbicidal activity on ELEIN; conditions: 21 DAT
Procedure: as §1, §2, §3, §4, §5, §6, §7

[8] = system: Euphorbia heterophylla (EPHHL); experiment: Post-emergence field trial, herbicidal activity on EPHHL; conditions: 21 DAT
Procedure: as §1, §2, §3, §4, §5, §6, §7

[9] = system: Galinsoga parviflora (GASPA); experiment: Post-emergence field trial, herbicidal activity on GASPA; conditions: Table 2.6, 21 DAT, weed height 15-35 cm
Procedure: as §1, §2, §3, §4, §5
as §6, with “the plants. […]” for “the plants.”

Ipomoea triloba (IPOTR) = experiment: Post-emergence field trial, herbicidal activity on IPOTR; conditions: 21 DAT
Procedure: as §1, §2, §3, §4, §5, §6, §7

[10] = system: Portulaca oleracea (POROL); experiment: Post-emergence field trial, herbicidal activity on POROL; conditions: growth stage 14-16, height 5-10 cm, 20 DAT, 0.5% MSO
Procedure: as §1, §2, §3, §4, §5
as §6, with “the plants. […]” for “the plants.”

CCc1cnc(C2=NC(C)(C(C)C)C(=O)N2)c(C(=O)O)c1.N (stereo not drawn) [Herbicide B-2, imazethapyr-ammonium, reference compound]
% herbicidal activity B-2 ([1]; AMACH, height 20-25 cm, B-2 100 g ai/ha solo, 25 DAT, 0.25 l/ha Dash MSO Max): 7%
% herbicidal activity B-2 ([2]; B-2 100 g ai/ha solo): 58%
% herbicidal activity B-2 ([3]; B-2 100 g ai/ha solo): 22%
% herbicidal activity B-2 ([4]; BOILF, growth stage 40, B-2 100 g ai/ha solo, 0.5% MSO): 23%
% herbicidal activity B-2 ([5]; BRAPL, growth stage 21-25, height 10-15 cm, B-2 100 g ai/ha solo, 20 DAT, 0.5% MSO): 0%
% herbicidal activity ([5]; B-2 100 g ai/ha alone, listed as with A-1 25 g ai/ha): 0%
% herbicidal activity ([5]; B-2 100 g ai/ha alone, listed as with A-1 50 g ai/ha): 0%
% herbicidal activity ([6]; B-2 100 g ai/ha alone): 0%
% herbicidal activity ([7]; B-2 100 g ai/ha alone): 13%
% herbicidal activity B-2 (Eleusine indica (ELEIN); ELEIN, height 20-25 cm, B-2 100 g ai/ha solo, 0.5% MSO): 0%
% herbicidal activity (Eleusine indica (ELEIN); Table 2.7, B-2 100 g ai/ha alone, growth stage 35-61, height 3-5 cm): 10%
% herbicidal activity B-2 ([8]; EPHHL, growth stage 35, B-2 100 g ai/ha solo, 0.5% MSO): 10%
% herbicidal activity ([8]; Table 2.6, B-2 100 g ai/ha alone, weed height 15-35 cm): 0%
% herbicidal activity ([8]; Table 2.7, B-2 100 g ai/ha alone, growth stage 18-65, height 5-15 cm): 20%
% herbicidal activity ([9]; B-2 100 g ai/ha alone): 0%
% herbicidal activity B-2 (Ipomoea triloba (IPOTR); IPOTR, growth stage 35, B-2 100 g ai/ha solo, 0.5% MSO): 22%
% herbicidal activity B-2 ([10]; B-2 100 g ai/ha solo): 30%

CCOC(=O)COc1ccccc1Oc1nc(-n2c(=O)cc(C(F)(F)F)n(C)c2=O)c(F)cc1Cl [Herbicide A-1, ethyl 2-[2-[[3-chloro-5-fluoro-6-[3-methyl-2,6-dioxo-4-(trifluoromethyl)pyrimidin-1-yl]-2-pyridyl]oxy]phenoxy]acetate]
% herbicidal activity A-1 ([1]; AMACH, height 20-25 cm, A-1 25 g ai/ha solo, 25 DAT, 0.25 l/ha Dash MSO Max): 91%
% herbicidal activity ([1]; Table 3.1, 21 DAT, A-1 50 g ai/ha alone, growth stage 35): 85%
% herbicidal activity A-1 ([2]; A-1 25 g ai/ha solo): 93%
% herbicidal activity A-1 ([3]; A-1 25 g ai/ha solo): 69%
% herbicidal activity A-1 ([3]; A-1 50 g ai/ha solo): 84%
% herbicidal activity A-1 ([4]; BOILF, growth stage 40, A-1 25 g ai/ha solo, 0.5% MSO): 81%
% herbicidal activity ([4]; Table 3.1, A-1 25 g ai/ha alone, growth stage 40): 81%
% herbicidal activity A-1 ([5]; BRAPL, growth stage 21-25, height 10-15 cm, A-1 50 g ai/ha solo, 20 DAT, 0.5% MSO): 73%
% herbicidal activity ([5]; A-1 25 g ai/ha alone): 83%
% herbicidal activity ([5]; A-1 50 g ai/ha alone): 93%
% herbicidal activity ([6]; A-1 50 g ai/ha alone): 50%
% herbicidal activity ([7]; A-1 50 g ai/ha alone): 38%
% herbicidal activity A-1 (Eleusine indica (ELEIN); ELEIN, height 20-25 cm, A-1 25 g ai/ha solo, 0.5% MSO): 45%
% herbicidal activity (Eleusine indica (ELEIN); Table 2.7, A-1 50 g ai/ha alone, growth stage 35-61, height 3-5 cm): 87%
% herbicidal activity (Eleusine indica (ELEIN); Table 3.2, A-1 50 g ai/ha alone, weed height 20-25 cm): 55%
% herbicidal activity A-1 ([8]; EPHHL, growth stage 35, A-1 50 g ai/ha solo, 0.5% MSO): 86%
% herbicidal activity ([8]; Table 2.6, A-1 50 g ai/ha alone, weed height 15-35 cm): 96%
% herbicidal activity ([8]; Table 2.7, A-1 25 g ai/ha alone, growth stage 18-65, height 5-15 cm): 94%
% herbicidal activity ([9]; A-1 50 g ai/ha alone): 92%
% herbicidal activity A-1 (Ipomoea triloba (IPOTR); IPOTR, growth stage 35, A-1 25 g ai/ha solo, 0.5% MSO): 61%
% herbicidal activity (Ipomoea triloba (IPOTR); Table 3.1, A-1 25 g ai/ha alone, growth stage 35): 61%
% herbicidal activity A-1 ([10]; A-1 50 g ai/ha solo): 58%
